# From patent US9328138B2 (priority 2011, dated 2016)
# What was measured:
# [1] = target: T1, HCV genotype 1b (BK) NS3 modified enzyme with a R155K mutation (Hepatitis C virus genotype 1b, UniProt P26663, R1181K); test: HCV NS3 protease time-resolved fluorescence (TRF) assay, genotype 1b R155K; format: biochemical; settings: Ki 1b R155K
# T1 construct: HCV genotype 1b (BK) NS3 modified enzyme
# Summary of the method: (§1)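 Inhibitor titrations are mixed with NS3/NS4A in pH 7.5 HEPES buffer containing 10 mM DTT and 15% glycerol for 10 min before substrate (25 nM final) is added. After 6 h at room temperature, delayed fluorescence is read and fitted to a four-parameter curve for IC50.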
# [2] = target: HCV NS3 protease genotype 3a (3A-1) (Hepatitis C virus genotype 3a, UniProt Q81258); test: HCV NS3 protease time-resolved fluorescence (TRF) assay, genotype 3a; format: biochemical; settings: Ki 3a
# Summary of the method: as §1
# [3] = first of two values printed in the cell (not explained)
# [4] = second of two values printed in the cell (not explained)
# [5] = genotype 1b (BK) NS3 R155K, single value
SMILES,"Ki [1, 3]","Ki [1, 4]",Ki [2],"Ki [1, 5]"
"C=C[C@@H]1CC1(NC(=O)[C@@H]1C[C@@H]2CN1C(=O)[C@H](C1CCOCC1)NC(=O)O[C@@H]1C[C@H]1CCCCCc1c(nc3ccccc3c1OC1CCN(C)CC1)O2)C(=O)NS(=O)(=O)C1(C)CC1 (stereo partly drawn) [Example 252, potassium {[(1R,2S)-2-ethenyl-1-({[(1aR,5S,8S,10R,22aR)-17-[(1-methylpiperidin-4-yl)oxy]-3,6-dioxo-5-(tetrahydro-2H-pyran-4-yl)-1,1a,3,4,5,6,9,10,18,19,20,21,22,22a-tetradecahydro-8H-7,10-methanocyclopropa[18,19][1,10,3,6]dioxadiazacyclononadecino[11,12-b]quinolin-8-yl]carbonyl}amino)cyclopropyl]carbonyl}[(1-methylcyclopropyl)sulfonyl]azanide]",0.009 nM,0.022 nM,0.088 nM,–
"C=C[C@@H]1C[C@]1(NC(=O)[C@@H]1C[C@@H]2CN1C(=O)[C@H](C(C)(C)C)NC(=O)O[C@@H]1C[C@H]1CCCCCc1c(nc3ccccc3c1OCCc1ccncc1)O2)C(=O)NS(=O)(=O)C1(C)CC1 [Example 219, (1aR,5S,8S,10R,22aR)-5-tert-butyl-N-[(1R,2S)-2-ethenyl-1-{[(1-methylcyclopropyl)sulfonyl]carbamoyl}cyclopropyl]-3,6-dioxo-17-[2-(pyridine-4-yl)ethoxy]-1,1a,3,4,5,6,9,10,18,19,20,21,22,22a-tetradecahydro-8H-7,10-methanocyclopropa[18,19][1,10,3,6] dioxadiazacyclononadecino[11,12-b]quinoline-8-carboxamide]",–,–,1.9 nM,0.12 nM
"C=C[C@@H]1C[C@]1(NC(=O)[C@@H]1C[C@@H]2CN1C(=O)[C@H](C(C)(C)C)NC(=O)O[C@@H]1C[C@H]1CCCCCc1c(nc3ccccc3c1O)O2)C(=O)NS(=O)(=O)C1(C)CC1 [Example 120, (1aR,5S,8S,10R,22aR)-5-tert-butyl-N-[(1R,2S)-2-ethenyl-1-{[(1-methylcyclopropyl)sulfonyl]carbamoyl}cyclopropyl]-17-hydroxy-3,6-dioxo-1,1a,3,4,5,6,9,10,18, 19,20,212,22,22a-tetradeca hydro-8H-7,10-methanocyclopropa [18,19][1,10,3,6]dioxadiazacyclo-nonadecino [11,12-b]quinoline-8-carboxamide]",–,–,1.1 nM,0.062 nM
"C=C[C@@H]1C[C@]1(NC(=O)[C@@H]1C[C@@H]2CN1C(=O)[C@H](C1CCCCC1)NC(=O)O[C@@H]1C[C@H]1CCCCCc1c(nc3ccccc3c1OC1CC3CCC(C1)N3)O2)C(=O)NS(=O)(=O)C1(C)CC1 (stereo partly drawn) [Example 283, potassium {[(1R,2S)-1-({[(1aR,5S,8S,10R,22aR)-17-(8-azabicyclo[3.2.1]oct-3-yloxy)-5-cyclohexyl-3,6-dioxo-1,1a,3,4,5,6,9,10,18,19,20,21,22,22a-tetradecahydro-8H-7,10-methanocyclopropa[18,19][1,10,3,6]dioxadiazacyclononadecino[11,12-b]quinolin-8-yl]carbonyl}amino)-2-ethenylcyclopropyl]carbonyl}[(1-methylcyclopropyl)sulfonyl]azanide]",0.014 nM,0.022 nM,0.108 nM,–
"C=C[C@@H]1C[C@]1(NC(=O)[C@@H]1C[C@@H]2CN1C(=O)[C@H](C(C)(C)C)NC(=O)O[C@@H]1CCC[C@H]1CC/C=C/Cc1c(nc3ccccc3c1OCCn1cccc1)O2)C(=O)NS(=O)(=O)C1CC1 [Example 52, (3aR,7S,10S,12R,21E,24aS)-7-tert-butyl-N-{(1R,2S)-1-[(cyclopropylsulfonyl)carbamoyl]-2-ethenylcyclopropyl}-5,8-dioxo-19-[2-(1H-pyrrol-1-yl)ethoxy]-1,2,3,3a,5,6,7,8,11,12,20, 23,24,24a-tetradeca hydro-10H-9,12-methano cyclopenta[18,19][1,10,3,6]dioxadiazacyclo nonadecino[11,12-b]quinoline-10-carboxamide]",–,–,10 nM,1.1 nM
"C=C[C@@H]1C[C@]1(NC(=O)[C@@H]1C[C@@H]2CN1C(=O)[C@H](C(C)(C)C)NC(=O)O[C@@H]1C[C@H]1CCCCCc1c(nc3ccccc3c1OCCN1CCS(=O)(=O)CC1)O2)C(=O)NS(=O)(=O)C1(C)CC1 [Example 176, (1aR,5S,8S,10R,22aR)-5-tert-butyl-17-[2-(1,1-dioxidothiomorpholin-4-yl)ethoxy]-N-[(1R,2S)-2-ethenyl-1-{[(1-methylcyclopropyl)sulfonyl]carbamoyl}cyclopropyl]-3,6-dioxo-1,1a,3,4,5,6,9,10,18,19,20,21,22,22a-tetradecachydro-8H-7,10-methanocyclopropa[18,19][1,10,3,6] dioxadiazacyclononadecino[11,12-b] quinoline-8-carboxamide]",–,–,1.3 nM,0.1 nM
"C=C[C@@H]1C[C@]1(NC(=O)[C@@H]1C[C@@H]2CN1C(=O)[C@H](C1CCCC1)NC(=O)O[C@@H]1CCC[C@H]1CC/C=C/Cc1c(nc3ccccc3c1OC(=O)NC(C)C)O2)C(=O)NS(=O)(=O)C1CC1 [Example 93, (3aR,7S,10S,12R,21E,24aS)-7-cyclopentyl-10-({(1R,2S)-1-[(cyclopropylsulfonyl)carbamoyl]-2-ethenylcyclopropyl}carbamoyl)-5,8-dioxo-1,2,3,3a,5,6,7,8,11,12,20,23,24,24a-tetradecahydro-10H-9,12-methanocyclopenta[18,19][1,10,3,6]dioxadiazacyclononadecino[11,12-b]quinolin-19-yl propan-2-ylcarbamate]",–,–,2.8 nM,0.26 nM
"CC[C@@H]1C[C@]1(NC(=O)[C@@H]1C[C@@H]2CN1C(=O)[C@H](C1CCCC1)NC(=O)O[C@@H]1CCC[C@H]1CC/C=C/Cc1c(nc3ccccc3c1OC)O2)C(=O)NS(=O)(=O)C1CC1 [Example 5, (3aR,7S,10S,12R,21E,24aS)-7-cyclopentyl-N-{(1R,2R)-1-[(cyclopropylsulfonyl)carbamoyl]-2-ethylcyclopropyl}-19-methoxy-5,8-dioxo-1,2,3,3a, 5,6,7,8,11,12,20,23,24,24a-tetradecahydro-10H-9,12-methanocyclopenta[18,19][1,10,3,6] dioxadiazacyclononadecino[11,12-b]quinoline-10-carboxamide]",–,–,17 nM,0.59 nM
"C=C[C@@H]1C[C@]1(NC(=O)[C@@H]1C[C@@H]2CN1C(=O)[C@H](C1CCCC1)NC(=O)O[C@@H]1CCC[C@H]1CC/C=C/Cc1c(nc3cccc(Cl)c3c1OC)O2)C(=O)NS(=O)(=O)C1CC1 [Example 10, (3aR,7S,10S,12R,21E,24aS)-18-chloro-7-cyclopentyl-N-{(1R,2S)-1-[(cyclopropylsulfonyl)carbamoyl]-2-ethenylcyclopropyl}-19-methoxy-5,8-dioxo-1,2,3,3a,5,6,7,8,11,12,20,23,24,24a-tetradecahydro-10H-9,12-methanocyclopenta [18,19][1,10,3,6]dioxadiazacyclononadecino [11,12-b]quinoline-10-carboxamide]",–,–,11 nM,0.19 nM
"C=C[C@@H]1C[C@]1(NC(=O)[C@@H]1C[C@@H]2CN1C(=O)[C@H](C1(C)CCCCC1)NC(=O)O[C@@H]1C[C@H]1CCCCCc1c(nc3ccccc3c1OC1CC3CCC(C1)N3C)O2)C(=O)NS(=O)(=O)C1(C)CC1 (stereo partly drawn) [Example 263, (1aR,5S,8S,10R,22aR)—N-[(1R,2S)-2-ethenyl-1-{[(1-methylcyclopropyl)sulfonyl]carbamoyl}cyclopropyl]-17-[(8-methyl-8-azabicyclo[3.2.1]oct-3-yl)oxy]-5-(1-methylcyclohexyl)-3,6-dioxo-1,1a,3,4,5,6,9,10,18,19,20,21,22,22a-tetradecahydro-8H-7,10-methanocyclopropa[18,19][1,10,3,6]dioxadiazacyclononadecino[11,12-b]quinoline-8-carboxamide]",0.006 nM,0.011 nM,0.041 nM,–
"C=C[C@@H]1C[C@]1(NC(=O)[C@@H]1C[C@@H]2CN1C(=O)[C@H](C(C)(C)C)NC(=O)O[C@@H]1CCC[C@H]1CCCCCc1c(nc3ccccc3c1OCCCN(C)C)O2)C(=O)NS(=O)(=O)C1(COC)CC1 [Example 97, (3aR,7S,10S,12R,24aR)-7-tert-butyl-19-[3-(dimethyl-amino)propoxy]-N-[(1R,2S)-2-ethenyl-1-({[1-(methoxymethyl)cyclopropyl]sulfonyl}carbamoyl)cyclopropyl]-5,8-dioxo-1,2,3,3a,5,6,7,8,11,12,20,21,22,23, 24,24a-hexadecahydro-10H-9,12-methanocyclopenta[18,19] [1,10,3,6]dioxadiaza-cyclononadecino [11,12,-b]quinoline-10-carboxamide]",–,–,73 nM,0.08 nM
"C=C[C@@H]1C[C@]1(NC(=O)[C@@H]1C[C@@H]2CN1C(=O)[C@H](C(C)(C)C)NC(=O)O[C@@H]1C[C@H]1CCCCCc1c(nc3ccccc3c1OCCCN1CCC(OC)CC1)O2)C(=O)NS(=O)(=O)C1(C)CC1 [Example 156, (1aR,5S,8S,10R,22aR)-5-tert-butyl-N-[(1R,2S)-2-ethenyl-1-{[(1-methylcyclopropyl)sulfonyl]carbamoyl}cyclopropyl]-17-[3-(4-methoxypiperidin-1-yl)propoxy]-3,6-dioxo-1,1a,3,4,5,6,9, 10,18,19,20,21,22,22a-tetradecahydro-8H-7,10-methanocyclopropa[18,19] [1,10,3,6]dioxadiaza cyclononadecino[11,12-b]quinoline-8-carboxamide]",–,–,0.84 nM,0.079 nM
